This note sets out measurements from publication doi:10.1101/2022.12.01.518659v1 (biorxiv, 2022).

Where a name gives a salt, the structure may show the parent alone.

For the assay, the target named is Atx3 13Q (Homo sapiens, UniProt P54252, OF/POLYQ/Q/TRACT). Description: ThT fluorescence aggregation assay. In kind it is biochemical.
Atx3 13Q, sequence (P54252 whole entry, change not shown): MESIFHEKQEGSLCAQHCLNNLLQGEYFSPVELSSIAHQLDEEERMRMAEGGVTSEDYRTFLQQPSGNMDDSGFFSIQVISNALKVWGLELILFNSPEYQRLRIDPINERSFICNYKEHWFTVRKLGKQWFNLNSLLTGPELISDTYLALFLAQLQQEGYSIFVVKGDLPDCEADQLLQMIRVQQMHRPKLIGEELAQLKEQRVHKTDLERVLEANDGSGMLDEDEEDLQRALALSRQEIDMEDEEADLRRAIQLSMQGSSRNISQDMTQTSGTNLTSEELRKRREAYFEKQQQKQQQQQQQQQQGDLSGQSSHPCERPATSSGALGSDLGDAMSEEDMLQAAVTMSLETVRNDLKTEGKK
Compound `NCCc1ccc(O)c(O)c1` [dopamine hydrochloride] yielded a concentration for half-maximal inhibition (IC50) of 110 nM.

For `O=C(O)CN(CCN(CC(=O)O)CC(=O)O)CCN(CC(=O)O)CC(=O)O` [pentetic acid], 120 nM corresponded to half-maximal inhibition (IC50).

Take `Cc1ccc(C(=O)c2cc(O)c(O)c([N+](=O)[O-])c2)cc1` [tolcapone]: the concentration for half-maximal inhibition (IC50) was found to be 20 nM.

`Cc1cc(C2CCCCC2)n(O)c(=O)c1` [ciclopirox ethanolamine] gave a concentration for half-maximal inhibition (IC50) of 80 nM.
